This note sets out measurements from patent publication US7001997B2, “Proteins, their production and use” (Takeda Chemical Industries, Ltd., priority 1996, dated 2006).

Assay [1] deals with T1, human liver-derived metalloprotease (Homo sapiens, UniProt Q99542).
T1 sequence (Q99542 98-508): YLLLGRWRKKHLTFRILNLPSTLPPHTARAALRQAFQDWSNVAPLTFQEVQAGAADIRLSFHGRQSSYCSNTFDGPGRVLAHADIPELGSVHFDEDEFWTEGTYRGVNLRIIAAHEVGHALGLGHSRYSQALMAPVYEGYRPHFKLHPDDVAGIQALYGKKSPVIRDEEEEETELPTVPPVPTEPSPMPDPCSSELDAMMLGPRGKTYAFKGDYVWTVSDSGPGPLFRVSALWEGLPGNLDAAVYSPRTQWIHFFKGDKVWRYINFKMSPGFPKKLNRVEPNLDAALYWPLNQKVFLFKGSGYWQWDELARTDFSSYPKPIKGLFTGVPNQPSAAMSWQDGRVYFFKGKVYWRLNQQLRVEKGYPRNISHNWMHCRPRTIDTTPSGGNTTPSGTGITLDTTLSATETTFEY
Put plainly: Inhibitor screening system with fluorogenic substrate DNP-Pro-Cha-Abu-Cys(Me)-His-Ala-Lys(N-Me-Abz)-NH2. As to conditions: 10 μM substrate, 37° C., 16 hours, excitation 365 nm, emission 460 nm; read-out: 50% inhibitory concentration of metalloprotease activity. The class given is biochemical. The arrangement: the objective metalloprotease of about 46 kDa was eluted with buffer E (QIAexpress System); 6xHis (vector-encoded N-terminal tag of pQE30); made in house; host or cells: Escherichia coli JM109/pNHMB. How it is done: A 96-well plate (Fluoro B Plate, Dainippon Pharmaceutical) was filled in with 30 μL of buffer (0.25 M Tris-HCl (pH 8.0), 5 mM CaCl2, 100 mM NaCl, 10 μM ZnCl2) and 20 μL of the recombinant human liver-derived metalloprotease (2.4 mg/ml) obtained in Example 5. […] When actinonin (Peptide Institute), a metalloprotease inhibitor, was added at a varying concentration to this reaction mixture, it inhibited metalloprotease activity with a 50% inhibitory concentration of about 10 μM. It was, therefore, clear that this assay system can be used for the screening of inhibitors of the human liver-derived metalloprotease.

Assay [2] has as its target T1, human liver-derived metalloprotease. Put plainly: PER assay of casein hydrolyzing activity in culture supernatant of COS-7 cells transfected with pTB1921. Format: biochemical. The arrangement: expressed in transfected cells; host or cells: COS-7. As to conditions: supernatant activated with 1 mM aminophenyl-mercuric acetate, 37° C., 30 minutes. How it is done:
Add aminophenyl mercuric acetate (final concentration 1 mM) to the protein of the present invention and react at 37° C. for 30 minutes. Electrophorese the reaction mixture on SDS-polyacrylamide gels (non-reducing) in accordance with PER (F. T. Lundy et al., Electrophoresis, 16, 43, 1995). Then, saturate the polyacrylamide gels with the substrate and react in the reaction medium at 37° C. for 16 hours. After the reaction, stain the gels with CBB to detect a proteolytic activity.
The pTB1921 obtained in Example 1, which had been inserted into the expression plasmied pCMV·SPORT (GIBCO/BRL), was used for expression in animal cells. The COS-7 cell line (purchased from the Institute for Fermentation, Osaka) was cultured in serum-containing DMEM and subcultured on the day before introduction of the gene. When the culture became 50% confluent, the COS-7 cells were washed with serum-free DMEM, and 2.5 ml of serum-free medium was added. […]
To the cell culture supernatant obtained in Example 2 was added aminophenyl-mercuric acetate (final concentration 1 mM) and the reaction was carried out at 37° C. for 30 minutes. The activity was then determined by the PER assay (F. T. Lundy et al., Electrophoresis, 16, 43, 1995). As a result, casein hydrolyzing activity which was not found in the mock culture supernatant was detected in the culture supernatant of COS-7 cells transfected with pTB1921.

As for `CCCCC[C@H](CC(=O)NO)C(=O)N[C@H](C(=O)N1CCC[C@H]1CO)C(C)C` [actinonin], in assay [1], the IC50 is roughly 10 µM.
Regarding `c1cnc2c(c1)ccc1cccnc12` [o-phenanthroline], the “inhibition of casein hydrolyzing activity” value in assay [2] is listed as “inhibited”.
